# From patent US9029388B2, “Condensed heterocyclic compound” (Takeda Pharmaceutical Company Limited, priority 2011, dated 2015)
# Legend:
# [1] = molecular target: T1, human PDE10A enzyme (Homo sapiens, UniProt Q9Y233); experiment: PDE10A enzyme activity inhibition test (Scintillation Proximity Assay, [3H]cGMP substrate); assay type: biochemical; conditions: control without compound = 0%, without compound and enzyme = 100%; for inhibition at 0.1 µM: compound 0.1 μM, read-out: Inhibitory rate (%) (0.1 μM); for inhibition at 10 µM: compound 10 μM, read-out: Inhibitory rate (%) (10 μM)
# T1 construct: Human PDE10A full-length gene was transfected into Sf9 or COS-7 cells; His-tag; made in house; host or cells: Sf9 or COS-7 cells
# Experimental: Human PDE10A full-length gene was transfected into Sf9 or COS-7 cells. The cells were disrupted and centrifuged, and human PDE10A enzyme was obtained from the residue. The enzyme extracted from Sf9 cells was partially purified using His-tag affinity column. The enzyme was stored at −70° C. until use.
# The PDE 10A enzyme activity was measured using an Scintillation Proximity Assay (SPA, GE Healthcare). To measure the inhibitory activity of the test compound, 10 μL of serially diluted test compound was reacted with 20 μL of PDE 10A enzyme in an assay buffer (50 mM HEPES-NaOH, 8.3 mM MgCl2, 1.7 mM EGTA, 0.1% BSA (pH 7.4)) for 30 min at room temperature. The final concentration of DMSO in the reaction mixture was 1%.
# The compounds were evaluated in duplicate in 96-well half-area plates (Corning). To start the reaction, 10 μL of substrate [3H] cGMP (25 or 50 nM; GE Healthcare and PerkinElmer, respectively) was added thereto to the total volume of 40 μL. After 60 min of reaction at room temperature, yttrium SPA beads containing zinc sulphate were added (6 mg/mL, 20 μL) to terminate the reaction. After standing still for 1 hr, the measurement was performed using a scintillation counter (PerkinElmer) and the inhibition rate was calculated. As for the inhibitory rate, the value without addition of the compound (control) was 0%, and that without addition of the compound and enzyme was 100%.
# [2] = test system: hyperlocomotion induced by MK-801; experiment: Suppressive action on hyperlocomotion induced by MK-801; assay type: in vivo, rat; conditions: male SD rats; 1 mg/kg p.o., 60 min before MK-801 (0.3 mg/kg, s.c.); vs vehicle, Student's t-test P<0.05; FIG. 1
# Description: Male SD rats were purchased from Charles River Laboratories Japan, Inc. (Kanagawa, Japan), and used for the experiment at the age of 8 weeks. After arrival at the vivarium, the animals were acclimated for at least 1 week. The animals were reared under a 12:12 hr light/dark cycle in a temperature- and humidity-controlled laboratory and allowed to freely take food and water.
# Example 14 was suspended in 0.5% (w/v) aqueous methylcellulose solution and orally administered (p.o.). (+)-MK-801 hydrogen maleate (MK-801, Sigma-Aldrich, St Louis, State of Missouri) was dissolved in saline, and subcutaneously administered (s.c.). All drugs were dosed in a volume of 2 mL/kg body weight for rats.
# Hyperlocomotion induced by psychostimulants (e.g., amphetamine, cocaine, methamphetamine, MK-801 and phencyclidine) in rodents is widely used as an animal model of psychosis (Psychopharmacology 1999, vol. 145: 237-250). Using rats, a suppressive action of a compound (Example 14) on the hyperlocomotion induced by MK-801 was tested. Until the start of the test, male SD rats (8-week-old) were acclimated in a locomotor chamber with an infrared sensor set on the upper side (Muromachi Kikai Co., Ltd., Tokyo, Japan). […] Hyperlocomotion was measured every 1 min, and the cumulative count for 120 min from the administration of MK-801 was calculated for each treatment group. […]
# T1 sequence (Q9Y233 267-1055): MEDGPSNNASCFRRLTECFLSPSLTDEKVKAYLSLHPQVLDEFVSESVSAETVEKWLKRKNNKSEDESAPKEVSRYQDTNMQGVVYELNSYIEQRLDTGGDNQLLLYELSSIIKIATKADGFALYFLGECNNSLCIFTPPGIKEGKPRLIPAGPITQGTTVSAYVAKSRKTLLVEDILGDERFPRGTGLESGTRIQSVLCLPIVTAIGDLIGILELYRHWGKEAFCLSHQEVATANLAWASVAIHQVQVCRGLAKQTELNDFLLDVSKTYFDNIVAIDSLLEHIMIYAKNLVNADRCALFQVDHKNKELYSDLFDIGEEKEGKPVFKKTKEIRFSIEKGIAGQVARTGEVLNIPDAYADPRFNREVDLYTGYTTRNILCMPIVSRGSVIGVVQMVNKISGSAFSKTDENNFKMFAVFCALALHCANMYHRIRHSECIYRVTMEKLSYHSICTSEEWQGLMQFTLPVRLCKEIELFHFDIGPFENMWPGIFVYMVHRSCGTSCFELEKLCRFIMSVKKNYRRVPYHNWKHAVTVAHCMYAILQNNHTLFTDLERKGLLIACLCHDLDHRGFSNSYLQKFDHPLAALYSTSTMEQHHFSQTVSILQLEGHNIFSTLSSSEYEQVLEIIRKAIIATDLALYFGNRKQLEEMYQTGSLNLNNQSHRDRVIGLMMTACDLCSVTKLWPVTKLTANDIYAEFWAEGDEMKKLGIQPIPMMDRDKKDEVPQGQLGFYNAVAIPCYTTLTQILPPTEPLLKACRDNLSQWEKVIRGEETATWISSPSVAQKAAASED
inhibition at 0.1 µM [1] [%],inhibition at 10 µM [1] [%],melting point [°C],SMILES,suppression of hyperlocomotion induced by MK-801 (cumulative count 0-120 min) [2]
59,,,"Cn1c(=O)c2cccnc2n1-c1ccc(Oc2nc3ccccc3[nH]2)cc1 [Example 7, 1-[4-(1H-benzimidazol-2-yloxy)phenyl]-2-methyl-1,2-dihydro-3H-pyrazolo[3,4-b]pyridin-3-one]",
97,95,236 to 239,"Cc1ccnc2c1n1ccnc1n2-c1ccc(Oc2nc3cccnc3n2C)cc1 [Example 15, 5-Methyl-9-{4-[(3-methyl-3H-imidazo[4,5-b]pyridin-2-yl)oxy]phenyl}-9H-imidazo[1′,2′:1,2]imidazo[4,5-b]pyridine]",
63,98,,"Cc1cn2cccc(-c3ccc(Oc4nc5ccccc5[nH]4)cc3)c2n1 [Example 1, 2-[4-(2-Methylimidazo[1,2-a]pyridin-8-yl)phenoxy]-1H-benzimidazole]",
99,101,,"CCc1nn(-c2ccc(Oc3nc4cccnc4n3C)cc2)c2ncccc12 [Example 12, 3-Ethyl-1-{4-[(3-methyl-3H-imidazo[4,5-b]pyridin-2-yl)oxy]phenyl}-1H-pyrazolo[3,4-b]pyridine]",
99,,,"COc1nn(-c2ccc(Oc3nc4ccccc4[nH]3)cc2)c2ncccc12 [Example 6, 1-[4-(1H-benzimidazol-2-yloxy)phenyl]-3-methoxy-1H-pyrazolo[3,4-b]pyridine]",
93,96,232 to 234,"Cn1c(Oc2ccc(-n3c4ncccc4n4ccnc34)cc2)nc2ccccc21 [Example 9, 9-{4-[(1-Methyl-1H-benzimidazol-2-yl)oxy]phenyl}-9H-imidazo[1′,2′:1,2]imidazo[4,5-b]pyridine]",
93,104,,"CCc1nn(-c2ccc(Oc3nc4ccccc4n3C)cc2)c2ncccc12 [Example 8, 3-Ethyl-1-{4-[(1-methyl-1H-benzimidazol-2-yl)oxy]phenyl}-1H-pyrazolo[3,4-b]pyridine]",
62,98,,"c1ccc2[nH]c(Oc3ccc(-c4cccn5ccnc45)cc3)nc2c1 [Example 2, 2-[4-(Imidazo[1,2-a]pyridin-8-yl)phenoxy]-1H-benzimidazole]",
91,102,,"CCn1nc2cccnc2c1-c1ccc(Oc2nc3ccccc3[nH]2)cc1 [Example 3, 3-[4-(1H-benzimidazol-2-yloxy)phenyl]-2-ethyl-2H-pyrazolo[4,3-b]pyridine]",
98,105,190 to 192,"COCCn1c(Oc2ccc(-n3c4nccc(C)c4n4ccnc34)cc2)nc2cccnc21 [Example 16, 9-(4-{[3-(2-Methoxyethyl)-3H-imidazo[4,5-b]pyridin-2-yl]oxy}phenyl)-5-methyl-9H-imidazo[1′,2′:1,2]imidazo[4,5-b]pyridine]",
104,109,189 to 192,"CC(=O)Cn1c(Oc2ccc(-n3c4ncccc4n4ccnc34)cc2)nc2ccccc21 [Example 10, 1-{2-[4-(9H-imidazo[1′,2′:1,2]imidazo[4,5-b]pyridin-9-yl)phenoxy]-1H-benzimidazol-1-yl}propan-2-one]",
96,105,178 to 182,"COCCn1c(Oc2ccc(-n3c4ncccc4n4ccnc34)cc2)nc2cccnc21 [Example 14, 9-(4-{[3-(2-Methoxyethyl)-3H-imidazo[4,5-b]pyridin-2-yl]oxy}phenyl)-9H-imidazo[1′,2′:1,2]imidazo[4,5-b]pyridine]",significantly suppressed hyperlocomotion induced by MK-801
97,106,228 to 231,"Cn1c(Oc2ccc(-n3c4ncccc4n4ccnc34)cc2)nc2cccnc21 [Example 13, 9-{4-[(3-Methyl-3H-imidazo[4,5-b]pyridin-2-yl)oxy]phenyl}-9H-imidazo[1′,2′:1,2]imidazo[4,5-b]pyridine]",
2,51,,"c1ccc2[nH]c(Oc3ccc(C4CCCn5ccnc54)cc3)nc2c1 (centres unmarked) [Example 5, 2-[4-(5,6,7,8-Tetrahydroimidazo[1,2-a]pyridin-8-yl)phenoxy]-1H-benzimidazole]",
104,106,208 to 211,"CC(C)(O)Cn1c(Oc2ccc(-n3c4ncccc4n4ccnc34)cc2)nc2ccccc21 [Example 11, 1-{2-[4-(9H-imidazo[1′,2′:1,2]imidazo[4,5-b]pyridin-9-yl)phenoxy]-1H-benzimidazol-1-yl}-2-methylpropan-2-ol]",
93,102,,"CCn1nc2cccnc2c1-c1ccc(Oc2nc3ccccc3n2C)cc1 [Example 4, 2-Ethyl-3-{4-[(1-methyl-1H-benzimidazol-2-yl)oxy]phenyl}-2H-pyrazolo[4,3-b]pyridine]",
